Experimental data as given in ChEMBL document CHEMBL1201862, “PubChem BioAssay data set” (2004).
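The compound was tested at five concentrations on cells cultured in 96-well plates, with a 48-hour exposure period. GI50: concentration for 50% inhibition of growth.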 Calls of active or inactive are those of the source. Cut-off read from the data, not from the text of the source: active = GI50 up to about 1.1 µM and inactive = higher.

What was measured:
Assay in all cases: growth of human tumour cells (NCI), 48 h
CCRF-CEM = tested on: CCRF-CEM
RXF 393 = tested on: RXF 393
SF-295 = tested on: SF-295
MDA-MB-435 = tested on: MDA-MB-435
CAKI-1 = tested on: CAKI-1
SNB-75 = tested on: SNB-75
786-0 = tested on: 786-0
RPMI-8226 = tested on: RPMI-8226
A549 = tested on: A549
ACHN = tested on: ACHN
A498 = tested on: A498
MDA-N = tested on: MDA-N
TK-10 = tested on: TK-10
NCI-H522 = tested on: NCI-H522
SK-OV-3 = tested on: SK-OV-3
HCC 2998 = tested on: HCC 2998
K562 = tested on: K562
NCI-H460 = tested on: NCI-H460
DU-145 = tested on: DU-145
HOP-92 = tested on: HOP-92

Row | SMILES | GI50 (CCRF-CEM) | GI50 (RXF 393) | GI50 (SF-295) | GI50 (MDA-MB-435) | GI50 (CAKI-1) | GI50 (SNB-75) | GI50 (786-0) | GI50 (RPMI-8226) | GI50 (A549) | GI50 (ACHN) | GI50 (A498) | GI50 (MDA-N) | GI50 (TK-10) | GI50 (NCI-H522) | GI50 (SK-OV-3) | GI50 (HCC 2998) | GI50 (K562) | GI50 (NCI-H460) | GI50 (DU-145) | GI50 (HOP-92)
1 | CCOc1ccc(N/C(Cl)=C(Cl)\C(=C(\Nc2ccc(OCC)cc2)n2nnc3ccccc32)[N+](=O)[O-])cc1 | 1.3 µM (inactive) | 2.28 µM (inactive) | 22.1 µM (inactive) | 6.95 µM (inactive) | 1.14 µM (inactive) | 18.3 µM (inactive) | 4.02 µM (inactive) | 4.18 µM (inactive) | 23.3 µM (inactive) | 4.03 µM (inactive) | 20.4 µM (inactive) | 3.82 µM (inactive) | 4.49 µM (inactive) | 1.08 µM (active) | 66.5 µM (inactive) | 13.2 µM (inactive) | 2.36 µM (inactive) | 24.7 µM (inactive) | 14.5 µM (inactive) | 2.25 µM (inactive)
2 | Cc1cnc2nc(-c3cccc4ccccc34)cc(O)c2c1 | 0.000692 µM (active) | 0.000346 µM (active) | 0.000887 µM (active) | 0.000211 µM (active) | 0.000646 µM (active) | 0.000407 µM (active) | 0.000791 µM (active) | 0.000487 µM (active) | 0.0014 µM (active) | 0.00119 µM (active) | 0.000352 µM (active) | 0.000216 µM (active) | – | 0.000261 µM (active) | 0.000706 µM (active) | 0.000723 µM (active) | 0.000462 µM (active) | 0.00303 µM (active) | 0.00394 µM (active) | 0.182 µM (active)
3 | O=C(/C=C/c1ccc(O)c(O)c1)c1ccc(O)cc1O [BUTEIN] | 3.75 µM (inactive) | 12.2 µM (inactive) | 22.3 µM (inactive) | 9.08 µM (inactive) | 10.5 µM (inactive) | 11.1 µM (inactive) | 12 µM (inactive) | 10.5 µM (inactive) | 25 µM (inactive) | 18 µM (inactive) | 17.7 µM (inactive) | 6.14 µM (inactive) | 19.4 µM (inactive) | 2.25 µM (inactive) | 15.7 µM (inactive) | 17.1 µM (inactive) | 4.27 µM (inactive) | 15.2 µM (inactive) | 9.1 µM (inactive) | 15.7 µM (inactive)
4 | Cn1c(=O)c2c(nc(NCCNc3nc4c(c(=O)n(C)c(=O)n4C)n3C)n2C)n(C)c1=O | > 100 µM (inactive) | > 100 µM (inactive) | > 100 µM (inactive) | > 100 µM (inactive) | > 100 µM (inactive) | > 100 µM (inactive) | > 100 µM (inactive) | – | > 100 µM (inactive) | > 100 µM (inactive) | > 100 µM (inactive) | > 100 µM (inactive) | > 100 µM (inactive) | > 100 µM (inactive) | – | > 100 µM (inactive) | > 100 µM (inactive) | > 100 µM (inactive) | > 100 µM (inactive) | > 100 µM (inactive)
5 | C=CC(OC(C)=O)c1ccc(OC(=O)C(C)C)c(OC)c1 (configuration not stated) | 2.01 µM (inactive) | 3.18 µM (inactive) | 10.5 µM (inactive) | 5.73 µM (inactive) | 1.77 µM (inactive) | 4.86 µM (inactive) | 1.99 µM (inactive) | 1.82 µM (inactive) | 18.8 µM (inactive) | 3.34 µM (inactive) | 17.2 µM (inactive) | 5.22 µM (inactive) | 5.04 µM (inactive) | 1.54 µM (inactive) | 16.6 µM (inactive) | 11.2 µM (inactive) | 3.15 µM (inactive) | 11.4 µM (inactive) | 11.5 µM (inactive) | 5.93 µM (inactive)
6 | [O-][n+]1onc(-c2ccccc2)c1CN1CCOCC1 | 22.8 µM (inactive) | > 100 µM (inactive) | > 100 µM (inactive) | > 100 µM (inactive) | > 100 µM (inactive) | > 100 µM (inactive) | > 100 µM (inactive) | 76.6 µM (inactive) | > 100 µM (inactive) | > 100 µM (inactive) | 61.9 µM (inactive) | > 100 µM (inactive) | > 100 µM (inactive) | 26.4 µM (inactive) | > 100 µM (inactive) | > 100 µM (inactive) | 51.2 µM (inactive) | > 100 µM (inactive) | > 100 µM (inactive) | > 100 µM (inactive)
7 | COC1C(CO)OC(n2c3c(Cl)cccc3c3c4c(c5c6cccc(Cl)c6[nH]c5c32)C(=O)NC4=O)C(O)C1O (configuration not stated) | 0.0367 µM (active) | 0.225 µM (active) | 0.286 µM (active) | 0.306 µM (active) | 0.169 µM (active) | 0.234 µM (active) | 0.133 µM (active) | 0.242 µM (active) | 0.298 µM (active) | 0.113 µM (active) | 0.158 µM (active) | 0.324 µM (active) | 0.47 µM (active) | 0.21 µM (active) | 0.303 µM (active) | 0.367 µM (active) | 0.142 µM (active) | 0.177 µM (active) | 0.202 µM (active) | 0.215 µM (active)
